For test [1], the target named is T1, human recombinant TDO2 enzyme (Homo sapiens, UniProt P48775).
T1 construct: made in house
The test can be described thus: Assay for TDO2 enzymatic activity determination. The test is classed as biochemical. The settings on record: human recombinant TDO2, L-Trp 1 mM, kynurenine absorbance at 480 nm. As to the method: To measure the TDO2 activity, the procedure described in Dolusic et al. J. Med. Chem.; 2011, 54, […] was adapted: the reaction mixture contained (final concentrations) potassium phosphate buffer (50 mM, pH 7.5), ascorbic acid (0.25 M), methylene blue (0.125 μM), catalase (40 units/mL, from bovine liver, Sigma), and human recombinant TDO2 enzyme (prepared as described in Dolusic et al. J. Med. Chem.; 2011, 54, 5320-5334; 0.9 μg) without or with the compounds of the present invention at the indicated concentrations (total volume 112.5 μL). The reaction was initiated by the addition of 37.5 μL of L-Trp (final concentration 1 mM) at room temperature. The reaction was conducted at room temperature during one hour and stopped by the addition of 30 μL of 30% (w/v) trichloroacetic acid.
To convert N-formylkynurenine into kynurenine, the reaction mixture was incubated at 65° C. for 30 min. Then 150 μL of the reaction mixture was mixed with 120 μL of 2.5% (w/v) 4-(dimethylamino)-benzaldehyde in acetic acid and incubated for 5 min at room temperature. Kynurenine concentrations were determined by measuring the absorbance at 480 nm. A standard curve was made with pure kynurenine. The TDO activity was measured as described above using ten serial concentrations of the compounds of the present invention. Data were fitted using the Prism™ software (GraphPad Software, Inc.) using standard parameters.

In test [2] the target is T2, murine mastocytoma P815 cells overexpressing hTDO2 (Homo sapiens, UniProt P48775).
T2 construct: expressed in transfected cells; host or cells: murine mastocytoma P815 cells
T2 sequence (P48775 whole entry): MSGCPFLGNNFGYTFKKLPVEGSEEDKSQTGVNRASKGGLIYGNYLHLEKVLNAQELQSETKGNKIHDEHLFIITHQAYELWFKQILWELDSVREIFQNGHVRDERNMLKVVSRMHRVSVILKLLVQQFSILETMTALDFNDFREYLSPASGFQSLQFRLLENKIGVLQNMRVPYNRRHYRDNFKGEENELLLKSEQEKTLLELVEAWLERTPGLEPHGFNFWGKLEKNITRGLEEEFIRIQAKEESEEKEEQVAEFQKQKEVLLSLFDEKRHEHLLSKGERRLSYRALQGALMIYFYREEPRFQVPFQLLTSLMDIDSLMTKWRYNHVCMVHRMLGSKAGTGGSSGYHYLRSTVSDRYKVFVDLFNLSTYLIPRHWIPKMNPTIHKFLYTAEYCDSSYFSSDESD
The test can be described thus: Cellular assay for TDO2 activity, hTDO2-overexpressing P815 cells. The test is classed as cell-based. Conditions: P815 cells overexpressing hTDO2, overnight incubation, kynurenine in supernatant. On the procedure:
The assay (adapted from Pilotte L et al., Proc Natl Acad Sci USA, 2012, 109(7), 2497-502) was performed in 96-well flat bottom plates seeded with murine mastocytoma P815 cells overexpressing hTDO2 (prepared as described in Pilotte et al., PNAS, 2012, 109(7), 2497-2502), at a concentration of 5×10^4 cells/well in a final volume of 200 μL. To determine TDO or IDO activity, the cells were incubated overnight at 37° C. at 5% CO2 in IMDM (Invitrogen) supplemented with 2% FBS and 2% penicillin/streptomycin in the presence of the compounds of the present invention, at different concentrations. The cells may be obtained from the American Type Cuylture Collecion [ATCC® TIB-64™ or commercially, e.g., from Sigma-Aldrich or Life Technologies.]
The plates were then centrifuged 5 min at 1000 rpm, and 100 μL of the supernatant were collected in a conical plate, 30 uL of TCA 30% were added and a further centrifugated at 3000×g for 10 minutes. 100 μL of the supernatant were collected in a flat bottomed plate and 100 μL of 2% (w/v) 4-(dimethylamino)-benzaldehyde in acetic acid and incubated for 5 min at room temperature. Kynurenine concentrations were determined by measuring the absorbance at 480 nm. A standard curve was made with pure kynurenine. The TDO activity was measured as described above using ten serial concentrations of the compounds of the present invention. Data were fitted using the Prism™ software (GraphPad Software, Inc.) using standard parameters.

Test [3] deals with T3, human glioblastoma A172 cells, naturally expressing hTDO2 (Homo sapiens, UniProt P48775).
T3 construct: human glioblastoma A172 cells, naturally expressing hTDO2; endogenous in cells; host or cells: human glioblastoma A172 cells (ATCC CRL-1620)
T3 sequence (P48775 whole entry): as above
The test can be described thus: Cellular assay for TDO2 activity, A172 cells. The test is classed as cell-based. The settings on record: overnight incubation, kynurenine in supernatant. The essentials: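 A172 human glioblastoma cells naturally expressing TDO2, seeded at 1.25×10^4 cells/well, were incubated overnight at 37 °C in IMDM with 2% FBS and ten serial compound concentrations. Supernatant kynurenine, after TCA precipitation and Ehrlich's reagent, was read at 480 nm against a kynurenine standard curve; data curve-fitted.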

The next test deals with TDO2. The test can be described thus: Pharmacodynamic assay for TDO2 in vivo activity: increase of blood Tryptophan levels in mice. Set-up: species or system mouse. Conditions: female BALB/c mice, 2 hours; for increase of circulating Tryptophan compared to vehicle-treated controls: p<0.0001. As to the method: The compounds of the present invention increase the amount of Tryptophan in mouse blood. Briefly, female BALB/c mice (7-8 weeks old) were treated with either a suspension of one of the compounds of the present invention in 0.5% hydroxypropyl methyl cellulose (HPMC) K4M (4000 mPa·s (cPs), Methocell™, Dow chemical)/0.25% Tween® 20 (Signma Aldrich) at different doses (30, 60 and 100 mg/kg), or with a vehicle control (0.5% HPMC K4M/0.25% Tween 20), by the oral route by gavage (dosing volume 5 mL/kg, 10 mice per group). After two hours, blood was harvested, plasma was prepared and the amount of Tryptophan present was determined by LC-MS-MS (HPLC column Unison UK-Phenyl, 75×4.6, 3 μm, flow rate 0.8 mL/min, 8 minutes gradient from 95% water+0.1% formic acid/5% Acetonitrile+0.1% formic acid to 5% water+0.1% formic acid/95% Acetonitrile+0.1% formic acid, retention time 2.4 min; API4000 MS-MS system from AB Sciex, ESI+ mode, parent ion 205.1, daughter ion 146.1).

SMILES strings stand for the structures.

T1 sequence (P48775 whole entry): as above

As a reminder, the IC50 is the concentration at which inhibition is half-maximal. In the case of `Fc1ccc2c(-c3ccc4cn[nH]c4c3)c[nH]c2c1` [Compound 1, 6-(6-fluoro-1H-indol-3-yl)-1H-indazole], the IC50 came out at 0.586 µM in test [1], 0.154 µM in test [2] and 0.178 µM in test [3].
In the case of `Cc1nc2cc(-c3c[nH]c4cc(F)ccc34)ccc2[nH]1` [Compound 26, 5-(6-fluoro-1H-indol-3-yl)-2-methyl-1H-benzo[d]imidazole], the values for the half-inhibitory concentration (IC50) in test [1] and in test [2] were 0.388 µM and 0.15 µM, respectively.
Regarding `CN1CCN(Cc2nc3cc(-c4c[nH]c5cc(F)ccc45)ccc3o2)CC1` [Compound 62, 5-(6-fluoro-1H-indol-3-yl)-2-((4-methylpiperazin-1-yl)methyl)benzo[d]oxazole], the IC50 in test [2] came to 0.21 µM; in test [3] it was 0.335 µM.
The like results for `NC(=O)Cn1c(=O)oc2cc(-c3c[nH]c4cc(F)ccc34)ccc21` [Compound 64, 2-(6-(6-fluoro-1H-indol-3-yl)-2-oxobenzo[d]oxazol-3(2H)-yl)acetamide] were, in that order, 0.176 µM and 0.501 µM.
The like results for `O=c1[nH]c2ccc(-c3c[nH]c4cc(F)ccc34)cc2[nH]1` [Compound 65, 5-(6-fluoro-1H-indol-3-yl)-1H-benzo[d]imidazol-2(3H)-one] were, in that order, 0.109 µM and 0.335 µM.
On to `Fc1ccc2c(-c3ccc4nc(CN5CCOCC5)oc4c3)c[nH]c2c1` [Compound 66, 6-(6-fluoro-1H-indol-3-yl)-2-(morpholinomethyl)benzo[d]oxazole], for which the IC50 amounted to 0.203 µM in test [2] and 0.284 µM in test [3].
Consider `CN1CCN(Cc2nc3ccc(-c4c[nH]c5cc(F)ccc45)cc3o2)CC1` [Compound 68, 6-(6-fluoro-1H-indol-3-yl)-2-((4-methylpiperazin-1-yl)methyl)benzo[d]oxazole], for which the 50% inhibitory concentration (IC50) in test [2] stood at 0.078 µM; in test [3], 0.218 µM.
As for `CS(=O)(=O)NCc1nc2cc(-c3c[nH]c4cc(F)ccc34)ccc2o1` [Compound 70, N-((5-(6-fluoro-1H-indol-3-yl)benzo[d]oxazol-2-yl)methyl)methanesulfonamide], the results for the 50% inhibitory concentration (IC50) in test [2] and in test [3] were 0.251 µM and 0.435 µM, respectively.
The corresponding values for `CS(=O)(=O)NCc1nc2ccc(-c3c[nH]c4cc(F)ccc34)cc2o1` [Compound 74, N-((6-(6-fluoro-1H-indol-3-yl)benzo[d]oxazol-2-yl)methyl)methanesulfonamide] are 0.072 µM and 0.152 µM.
The corresponding values for `CC(=O)NCc1nc2ccc(-c3c[nH]c4cc(F)ccc34)cc2o1` [Compound 75, N-((6-(6-fluoro-1H-indol-3-yl)benzo[d]oxazol-2-yl)methyl)acetamide] are 0.092 µM and 0.143 µM.
The like results for `Fc1ccc2c(-c3ccc4nn(CC5CCNCC5)cc4c3)c[nH]c2c1` [Compound 77, 5-(6-fluoro-1H-indol-3-yl)-2-(piperidin-4-ylmethyl)-2H-indazole] were, in that order, 0.246 µM and 0.265 µM.
Turning to `Fc1ccc2c(-c3ccc4nc(CN5CCNCC5)oc4c3)c[nH]c2c1` [Compound 78, 6-(6-fluoro-1H-indol-3-yl)-2-(piperazin-1-ylmethyl)benzo[d]oxazole], the figures for the IC50 in test [2] and in test [3] were 0.082 µM and 0.149 µM, respectively.
In the case of `Fc1ccc2c(-c3ccc4nc(CCN5CCNCC5)oc4c3)c[nH]c2c1` [Compound 110, 6-(6-fluoro-1H-indol-3-yl)-2-(2-(piperazin-1-yl)ethyl)benzo[d]oxazole], the IC50 in test [1] was determined as 1.63 µM; in test [3] it was 0.239 µM. The “Tryptophan concentration in plasma (average ± standard error of the mean)” value turned out to be 125 ± 7 µM with TDO2 (30 mg/kg oral gavage), 130.3 µM in the test with TDO2 (60 mg/kg oral gavage) and 153.2 µM in the test on TDO2 (100 mg/kg oral gavage). The “increase of circulating Tryptophan compared to vehicle-treated controls” value in the test with TDO2 (30 mg/kg oral gavage) amounted to 46%; in the test on TDO2 (60 mg/kg oral gavage), 52%; in the test on TDO2 (100 mg/kg oral gavage), 78%.

The record behind these values is patent US20150266857A1, “NOVEL 3-INDOL SUBSTITUTED DERIVATIVES, PHARMACEUTICAL COMPOSITIONS AND METHODS FOR USE” (iTeos Therapeutics, priority 2014, published 2015).
